Drawing on patent US7217730B2, “Method for the use of pyranoindole derivatives to treat infection with Hepatitis C virus” (Wyeth, priority 2002, dated 2007), this text covers inhibition and IC50 for 26 molecules.

Like-named read-outs stand apart in the source and are kept apart here.

This assay deals with T1, NS5B from the BK strain (genotype 1b) (Hepatitis C virus genotype 1b, UniProt P26663).
T1 construct: NS5B from the BK strain (genotype 1b) is expressed in E. coli as a protein in which the 21 C-terminal amino acids are replaced; made in house; host or cells: E. coli
Put plainly: Hepatitis C polymerase inhibition, NS5B BK strain, 33P-GTP filter assay. It is filed as biochemical. The settings on record: for inhibition at 20 µM: 20 μM compound, read-out: HCV pol % inh at 20 μM; for IC50: NS5B BK strain. The method, boiled down:
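Radiolabelled RNA synthesis was measured by filter capture and scintillation counting after EDTA stop. His-tagged, C-terminally truncated (Δ21) genotype 1b BK NS5B from E. coli, pre-exposed to compound for 15 min, copied a self-primed RNA template (~3 nM) with α-[33P]-GTP for 2 h at room temperature.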

Setting [1] is: Table 1A, read-out: HCV pol BK IC50.

T1 sequence (P26663 2420-2989): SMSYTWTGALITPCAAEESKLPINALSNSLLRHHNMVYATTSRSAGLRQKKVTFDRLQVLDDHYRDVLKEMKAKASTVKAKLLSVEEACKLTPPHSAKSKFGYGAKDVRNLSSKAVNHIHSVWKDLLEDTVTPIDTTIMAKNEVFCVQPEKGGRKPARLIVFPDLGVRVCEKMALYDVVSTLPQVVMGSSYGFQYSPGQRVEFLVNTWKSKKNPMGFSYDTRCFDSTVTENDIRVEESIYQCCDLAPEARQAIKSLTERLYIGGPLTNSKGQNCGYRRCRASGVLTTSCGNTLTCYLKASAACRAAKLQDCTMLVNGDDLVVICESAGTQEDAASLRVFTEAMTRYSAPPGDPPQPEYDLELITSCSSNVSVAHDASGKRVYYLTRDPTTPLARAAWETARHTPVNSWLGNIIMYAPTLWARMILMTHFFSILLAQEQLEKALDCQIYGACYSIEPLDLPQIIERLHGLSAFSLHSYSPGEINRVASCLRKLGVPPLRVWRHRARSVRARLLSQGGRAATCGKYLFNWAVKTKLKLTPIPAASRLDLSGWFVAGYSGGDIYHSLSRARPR

Turning to `Cc1cc(Cl)c2[nH]c3c(c2c1Br)CCOC3(CC(=O)O)C(C)C` (centres unmarked) [Example 176, (5-bromo-8-chloro-1-isopropyl-6-methyl-1,3,4,9-tetrahydropyrano[3,4-b]indol-1-yl)acetic acid], the inhibition at 20 µM (Table 1A) is 49%. Under setting [1], the IC50 was above 5 µM.

Turning to `CCCC1(CC(=O)O)OCCc2c1n(C)c1c(Cl)ccc(Cl)c21` (centres unmarked) [Example 232, (5,8-dichloro-9-methyl-1-propyl-1,3,4,9-tetrahydropyrano[3,4-b]indol-1-yl)acetic acid], the concentration for half-maximal inhibition (IC50) under setting [1] was found to be 7.6 µM.

Regarding `N#Cc1cccc2[nH]c3c(c12)CCOC3(CC(=O)O)c1ccoc1` (centres unmarked) [Example 61, [5-cyano-1-(3-furyl)-1,3,4,9-tetrahydropyrano[3,4-b]indol-1-yl]acetic acid], the inhibition at 20 µM (Table 1A) was 18%. The IC50 under setting [1] was above 20 µM.

On to `O=C(O)CC1(c2ccoc2)OCCc2c1[nH]c1cccc(Br)c21` (centres unmarked) [Example 25, [5-bromo-1-(3-furyl)-1,3,4,9-tetrahydropyrano[3,4-b]indol-1-yl]acetic acid], for which, for the setting “Table 1A”, the inhibition at 20 µM came out at 33%. Also, under setting [1], the concentration for half-maximal inhibition (IC50) was above 20 µM.

Turning to `CC1(CC(=O)O)OCCc2c1[nH]c1ccc(Cl)c(Cl)c21` (centres unmarked) [Example 107, (5,6-dichloro-1-methyl-1,3,4,9-tetrahydropyrano[3,4-b]indol-1-yl)acetic acid], the inhibition at 20 µM (Table 1A) was found to be 50%. For the same molecule, under setting [1], the IC50 is 19.1 µM.

As to `O=C(O)CC1(c2ccc([N+](=O)[O-])cc2)OCCc2c1[nH]c1cccc(Cl)c21` (centres unmarked) [Example 18, [5-chloro-1-(4-nitrophenyl)-1,3,4,9-tetrahydropyrano[3,4-b]indol-1-yl]acetic acid], under “Table 1A”, the inhibition at 20 µM is below 5%. Moreover, under setting [1], the half-maximal inhibitory concentration (IC50) is above 20 µM.

On to `CCCC1(CC(=O)O)OCCc2c1[nH]c1c(-c3ccc(Cl)cc3)cccc21` (centres unmarked) [Example 92, [8-(4-chlorophenyl)-1-propyl-1,3,4,9-tetrahydropyrano[3,4-b]indol-1-yl]acetic acid], for which the inhibition at 20 µM (Table 1A) worked out at 35%. Also, the IC50 under setting [1] was above 20 µM.

Turning to `CCC1(CC(=O)O)OCCc2c1[nH]c1c(Cl)cc(Cl)c(Cl)c21` (centres unmarked) [Example 155, (5,6,8-trichloro-1-ethyl-1,3,4,9-tetrahydropyrano[3,4-b]indol-1-yl)acetic acid], the inhibition at 20 µM (Table 1A) stood at 84%. Moreover, the concentration for half-maximal inhibition (IC50) under setting [1] came out at 0.47 µM.

Turning to `O=C(O)CC1(c2ccccc2)OCCc2c1[nH]c1cccc(Br)c21` (centres unmarked) [Example 26, (5-bromo-1-phenyl-1,3,4,9-tetrahydropyrano[3,4-b]indol-1-yl)acetic acid], where the note is “Table 1A”, the inhibition at 20 µM was below 5%. Further, under setting [1], the IC50 is above 20 µM.

For `CCCC1(CC(=O)O)OC(C)Cc2c1[nH]c1c(F)ccc(C#N)c21` (centres unmarked) [Example 228, (5-cyano-8-fluoro-3-methyl-1-propyl-1,3,4,9-tetrahydropyrano[3,4-b]indol-1-yl)acetic acid], under setting [1], the IC50 amounted to 8.9 µM.

As to `Cc1ccc(C)c2c3c([nH]c12)C(C)(CC(=O)O)OCC3` (centres unmarked) [Example 137, (1,5,8-trimethyl-1,3,4,9-tetrahydropyrano[3,4-b]indol-1-yl)acetic acid], the inhibition at 20 µM (Table 1A) is 5%. Also, the half-inhibitory concentration (IC50) under setting [1] was above 20 µM.

Take `Cc1cc(F)c2[nH]c3c(c2c1C#N)CCOC3(C)CC(=O)O` (centres unmarked) [Example 219, (5-cyano-8-fluoro-1,6-dimethyl-1,3,4,9-tetrahydropyrano[3,4-b]indol-1-yl)acetic acid]: where the note is “Table 1A”, the inhibition at 20 µM was 30%. Moreover, the half-maximal inhibitory concentration (IC50) under setting [1] is above 5 µM.

As for `CCCC1(CC(=O)O)OCCc2c1[nH]c1c(-c3ccc(Cl)cc3Cl)cccc21` (centres unmarked) [Example 93, [8-(2,4-dichlorophenyl)-1-propyl-1,3,4,9-tetrahydropyrano[3,4-b]indol-1-yl]acetic acid], the inhibition at 20 µM (Table 1A) was determined as 64%. Besides, the IC50 under setting [1] is above 20 µM.

For the molecule `CCC1(CC(=O)O)OCCc2c1[nH]c1cccc(Br)c21` (centres unmarked) [Example 21, (5-bromo-1-ethyl-1,3,4,9-tetrahydro-pyrano[3,4-b]indol-1-yl)acetic acid], the inhibition at 20 µM (Table 1A) came to 58%. Further, the IC50 under setting [1] was above 20 µM.

On to `C/C=C/CCC1(CC(=O)O)OCCc2c1[nH]c1cccc(Cl)c21` (centres unmarked) [Example 16, {5-chloro-1-[(3E)-pent-3-enyl]-1,3,4,9-tetrahydropyrano[3,4-b]indol-1-yl}acetic acid], for which the inhibition at 20 µM (Table 1A) was below 5%. In addition, under setting [1], the IC50 is above 20 µM.

Consider `CCCCC1(CC(=O)O)OCCc2c1[nH]c1c(C)cc(F)c(C#N)c21` (centres unmarked) [Example 208, (1-butyl-5-cyano-6-fluoro-8-methyl-1,3,4,9-tetrahydropyrano[3,4-b]indol-1-yl)acetic acid], for which the inhibition at 20 µM (Table 1A) amounted to 88%. Also, the IC50 under setting [1] is 0.23 µM.

As to `CCCC1(CC(=O)O)OCCc2c1[nH]c1c(F)ccc(-c3ccccc3)c21` (centres unmarked) [Example 147, (8-fluoro-5-phenyl-1-propyl-1,3,4,9-tetrahydropyrano[3,4-b]indol-1-yl)acetic acid], the inhibition at 20 µM (Table 1A) was found to be 34%.

For `CCCC1(CC(=O)O)OCCc2c1[nH]c1cccc(-c3cccc(OC)c3)c21` (centres unmarked) [Example 47, [5-(3-methoxyphenyl)-1-propyl-1,3,4,9-tetrahydropyrano[3,4-b]indol-1-yl]acetic acid], the inhibition at 20 µM (Table 1A) came to 15%. The concentration for half-maximal inhibition (IC50) under setting [1] was above 20 µM.

With “(4-cyclobutyl-5,8-dichloro-1-propyl-1,3,4,9-tetrahydropyrano[3,4-b]indol-1-yl)acetic acid [Example 231]”, under setting [1], the IC50 amounted to 7.2 µM.

As to `CCCC1(CC(=O)O)OCCc2c1[nH]c1c(Cl)ccc(C(F)(F)F)c21` (centres unmarked) [Example 131, [8-chloro-1-propyl-5-(trifluoromethyl)-1,3,4,9-tetrahydropyrano[3,4-b]indol-1-yl]acetic acid], the inhibition at 20 µM (Table 1A) was 93%. For the same molecule, under setting [1], the half-inhibitory concentration (IC50) worked out at 0.32 µM.

`CC(C)C1(CC(=O)O)OCCc2c1[nH]c1c(Cl)cc(Cl)cc21` (centres unmarked) [Example 102, (6,8-dichloro-1-isopropyl-1,3,4,9-tetrahydropyrano[3,4-b]indol-1-yl)acetic acid]: the inhibition at 20 µM (Table 1A) stood at 51%. For the same molecule, the IC50 under setting [1] worked out at 21.7 µM.

Take `CCCCC1(CC(=O)O)OCCc2c1[nH]c1c(C(F)(F)F)cccc21` (centres unmarked) [Example 119, [1-butyl-8-(trifluoromethyl)-1,3,4,9-tetrahydropyrano[3,4-b]indol-1-yl]acetic acid]: for the setting “Table 1A”, the inhibition at 20 µM came to 31%. For the same molecule, the IC50 under setting [1] was above 20 µM.

In the case of `COc1cc(C2(CC(=O)O)OCCc3c2[nH]c2cccc(C#N)c32)cc(OC)c1OC` (centres unmarked) [Example 63, [5-cyano-1-(3,4,5-trimethoxyphenyl)-1,3,4,9-tetrahydropyrano[3,4-b]indol-1-yl]acetic acid], the inhibition at 20 µM (Table 1A) worked out at 30%. For the same molecule, the IC50 under setting [1] was above 20 µM.

Consider `CCC[C@]1(C(=O)O)OCCc2c1[nH]c1c(F)ccc(C#N)c21` [Example 344, (1S)-(5-cyano-8-fluoro-1-propyl-1,3,4,9-tetrahydropyrano[3,4-b]indol-1-yl)carboxylic acid], for which the concentration for half-maximal inhibition (IC50) (Table 1B, read-out: BK IC50) was 0.7 µM.

As to `O=C(O)CC1(c2ccoc2)OCCc2c1[nH]c1c(Cl)cccc21` (centres unmarked) [Example 79, [8-chloro-1-(3-furyl)-1,3,4,9-tetrahydropyrano[3,4-b]indol-1-yl]acetic acid], for the setting “Table 1A”, the inhibition at 20 µM was determined as 40%. Further, the 50% inhibitory concentration (IC50) under setting [1] is above 20 µM.

With `O=C(O)CC1(c2ccoc2)OCCc2c1[nH]c1c(Cl)ccc(Cl)c21` (centres unmarked) [Example 53, [5,8-dichloro-1-(3-furyl)-1,3,4,9-tetrahydropyrano[3,4-b]indol-1-yl]acetic acid], the inhibition at 20 µM (Table 1A) amounted to 62%. The concentration for half-maximal inhibition (IC50) under setting [1] came out at 13 µM.
